According to ChEMBL document CHEMBL1151054, “Fungal metabolite of naftazone inhibits nitrite production by activated murine macrophages” (Bioorg Med Chem Lett, 1995):

Columns and labels:
[1] = Compound was tested for inhibition of constitutive bovine brain Nitric oxide synthase; assay type: tissue-based
[2] = molecular target: T1, Nitric oxide synthase, inducible (Mus musculus, UniProt P29477); experiment: Compound was tested for inhibition of inducible Nitric oxide synthase in activated murine macrophages.
T1 sequence (P29477 whole entry): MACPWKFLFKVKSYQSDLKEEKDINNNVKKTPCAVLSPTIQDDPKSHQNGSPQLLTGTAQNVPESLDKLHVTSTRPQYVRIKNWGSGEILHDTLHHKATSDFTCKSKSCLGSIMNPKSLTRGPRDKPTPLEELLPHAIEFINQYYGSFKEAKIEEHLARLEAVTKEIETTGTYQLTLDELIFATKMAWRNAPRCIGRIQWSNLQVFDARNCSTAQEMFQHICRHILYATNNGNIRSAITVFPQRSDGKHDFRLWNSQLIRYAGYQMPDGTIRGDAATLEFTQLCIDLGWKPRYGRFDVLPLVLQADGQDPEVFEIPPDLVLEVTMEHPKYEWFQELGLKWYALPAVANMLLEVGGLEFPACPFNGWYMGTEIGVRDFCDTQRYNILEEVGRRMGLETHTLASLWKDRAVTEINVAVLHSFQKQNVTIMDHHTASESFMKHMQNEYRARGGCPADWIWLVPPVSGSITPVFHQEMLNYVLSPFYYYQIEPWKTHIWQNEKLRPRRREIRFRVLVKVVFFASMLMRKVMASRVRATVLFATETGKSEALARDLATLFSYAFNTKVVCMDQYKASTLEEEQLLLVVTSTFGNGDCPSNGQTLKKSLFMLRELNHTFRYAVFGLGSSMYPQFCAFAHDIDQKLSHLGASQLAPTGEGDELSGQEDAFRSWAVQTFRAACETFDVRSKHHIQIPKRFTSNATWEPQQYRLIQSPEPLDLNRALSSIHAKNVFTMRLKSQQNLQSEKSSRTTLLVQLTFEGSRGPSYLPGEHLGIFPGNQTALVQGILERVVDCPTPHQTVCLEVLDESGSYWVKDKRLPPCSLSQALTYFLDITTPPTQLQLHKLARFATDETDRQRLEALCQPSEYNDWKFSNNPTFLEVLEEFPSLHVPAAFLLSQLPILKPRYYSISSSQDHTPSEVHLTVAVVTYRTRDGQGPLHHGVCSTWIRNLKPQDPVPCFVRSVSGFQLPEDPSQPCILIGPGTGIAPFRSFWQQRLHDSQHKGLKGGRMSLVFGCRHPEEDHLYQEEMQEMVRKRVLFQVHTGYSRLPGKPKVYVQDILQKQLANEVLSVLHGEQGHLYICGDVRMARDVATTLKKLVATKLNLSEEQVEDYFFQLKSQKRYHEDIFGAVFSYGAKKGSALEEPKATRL

SMILES	IC50 [1] [µM]	IC50 [2] [µM]
O=[N+]([O-])c1ccc2cn[nH]c2c1	2.5	20
O=c1nnc2ccc3c(c2[nH]1)=CCCC=3	–	50
c1ccc(-n2ccnc2)cc1	–	8
